The subject of assay [1] is HUVEC. The experiment in a line: Inhibition of H2O2-induced cytotoxicity in HUVEC cells assessed as cell viability at 5 to 100 umol/L incubated 4 hrs prior to H2O2 challenge measured after 12 hrs by MTT assay. The assay is classed as functional, cell-based. Particulars: Homo sapiens. In general terms: Tetrazolium assays rely on reduction of a dye to a coloured formazan, in cell work by metabolically active cells.

Assay [2] has as its system HUVEC. Kind of assay: Antioxidant activity in HUVEC cells assessed as […] in H2O2-induced GSH activity at 5 mmol/L incubated 4 hrs prior to H2O2 challenge measured after 12 hrs. Particulars: Homo sapiens. Type of assay: functional, cell-based.
Assay [3] has as its system HUVEC. The experiment in a line: Inhibition of H2O2-induced cytotoxicity in HUVEC cells assessed as LDH release at 5 mmol/L incubated 4 hrs prior to H2O2 challenge measured after 12 hrs by LDH assay. The assay is classed as functional, cell-based. Particulars: Homo sapiens. Background: LDH in the medium is a marker of cell lysis.
The subject of assay [4] is HUVEC. Kind of assay: Inhibition of H2O2-induced cytotoxicity in HUVEC cells assessed as cell viability at 5 mmol/L incubated 4 hrs prior to H2O2 challenge measured after 12 hrs by MTT assay. Particulars: Homo sapiens. The assay is classed as functional, cell-based.
For assay [5], the system named is HUVEC. Kind of assay: Antioxidant activity against H2O2-induced lipid accumulation in HUVEC cells assessed as reduction in MDA level at 5 mmol/L incubated 4 hrs prior to H2O2 challenge measured after 12 hrs. Type of assay: functional, cell-based. Particulars: Homo sapiens.
Assay [6] concerns HUVEC. Kind of assay: Antioxidant activity in HUVEC cells assessed as […] in H2O2-induced GSH activity at 50 umol/L incubated 4 hrs prior to H2O2 challenge measured after 12 hrs. The assay is classed as functional, cell-based. The conditions noted are these: Homo sapiens.
Assay [7] deals with HUVEC. The experiment in a line: Antioxidant activity against H2O2-induced lipid accumulation in HUVEC cells assessed as reduction in MDA level at 50 umol/L incubated 4 hrs prior to H2O2 challenge measured after 12 hrs. The assay is classed as functional, cell-based. The conditions noted are these: Homo sapiens.
For assay [8], the system named is HUVEC. Kind of assay: Inhibition of H2O2-induced cytotoxicity in HUVEC cells assessed as LDH release at 50 umol/L incubated 4 hrs prior to H2O2 challenge measured after 12 hrs by LDH assay. The assay is classed as functional, cell-based. The conditions noted are these: Homo sapiens.
Assay [9] concerns HUVEC. The experiment in a line: Antiapoptotic activity in HUVEC cells assessed as reduction in H2O2-induced p53 level by Western blotting relative to control. Particulars: Homo sapiens. Type of assay: functional, cell-based.
The test system of assay [10] is HUVEC. Kind of assay: Antioxidant activity against H2O2-induced lipid accumulation in HUVEC cells assessed as reduction in MDA level incubated 4 hrs prior to H2O2 challenge measured after 12 hrs. Type of assay: functional, cell-based. Particulars: Homo sapiens.
For assay [11], the system named is HUVEC. Kind of assay: Antiapoptotic activity against H2O2-induced HUVEC cells assessed as reduction in late apoptotic cells after 4 hrs by annexin V-FITC/propidium iodide staining-based flow cytometry. Type of assay: functional, cell-based. The conditions noted are these: Homo sapiens.
Assay [12] concerns HUVEC. Kind of assay: Antiapoptotic activity in HUVEC cells assessed as reduction in H2O2-induced nuclear condensation by hoechst staining. The conditions noted are these: Homo sapiens. Type of assay: functional, cell-based.
The subject of assay [13] is HUVEC. Kind of assay: Antiapoptotic activity in HUVEC cells assessed as reduction in H2O2-induced Bax level by Western blotting relative to control. Type of assay: functional, cell-based. Particulars: Homo sapiens. (In general: In western blotting, separated proteins are transferred to a membrane and probed.)
Assay [14] relates to HUVEC. Kind of assay: Antiapoptotic activity in HUVEC cells assessed as […] in H2O2-induced pro-caspase-3 level by Western blotting. Type of assay: functional, cell-based. The conditions noted are these: Homo sapiens.
For assay [15], the system named is HUVEC. The experiment in a line: Antiapoptotic activity in HUVEC cells assessed as […] in H2O2-induced pro-caspase-9 level by Western blotting. Type of assay: functional, cell-based. Particulars: Homo sapiens.
Assay [16] relates to HUVEC. Kind of assay: Inhibition of H2O2-induced cytotoxicity in HUVEC cells assessed as LDH release incubated 4 hrs prior to H2O2 challenge measured after 12 hrs by LDH assay. Particulars: Homo sapiens. Type of assay: functional, cell-based.
Assay [17] has as its system HUVEC. Kind of assay: Antiapoptotic activity against H2O2-induced HUVEC cells assessed as increase in Bcl-2 level by Western blotting relative to control. Type of assay: functional, cell-based. Particulars: Homo sapiens.
Assay [18] deals with HUVEC. The experiment in a line: Antiapoptotic activity in HUVEC cells assessed as reduction in H2O2-induced PARP level by Western blotting relative to control. The assay is classed as functional, cell-based. Particulars: Homo sapiens.
The test system of assay [19] is HUVEC. The experiment in a line: Antiapoptotic activity in HUVEC cells assessed as inhibition of H2O2-induced mitochondrial membrane potential reduction by JC-1 staining. The assay is classed as functional, cell-based. The conditions noted are these: Homo sapiens.
Assay [20] deals with HUVEC. Kind of assay: Antiapoptotic activity against H2O2-induced HUVEC cells assessed as reduction in total apoptotic cells at 100 umol/L after 4 hrs by annexin V-FITC/propidium iodide staining-based flow cytometry. The assay is classed as functional, Homo sapiens. Details: scale not given: the % may be the effect or the level left.
Assay [21] deals with HUVEC. Kind of assay: Antiapoptotic activity in HUVEC cells assessed as reduction in H2O2-induced nuclei-shrunk by Hoechst staining. The assay is classed as functional, cell-based. Particulars: Homo sapiens.
Assay [22] deals with HUVEC. The experiment in a line: Antioxidant activity against in HUVEC cells assessed as […] in H2O2-induced GSH activity incubated 4 hrs prior to H2O2 challenge measured after 12 hrs. The assay is classed as functional, cell-based. The conditions noted are these: Homo sapiens.
The subject of assay [23] is HUVEC. Kind of assay: Antiapoptotic activity against H2O2-induced HUVEC cells assessed as reduction in total apoptotic cells at 5 umol/L after 4 hrs by annexin V-FITC/propidium iodide staining-based flow cytometry. Type of assay: functional, Homo sapiens. Details: scale not given: the % may be the effect or the level left.
In assay [24] the test system is HUVEC. The experiment in a line: Antiapoptotic activity against H2O2-induced HUVEC cells assessed as reduction in total apoptotic cells at 50 umol/L after 4 hrs by annexin V-FITC/propidium iodide staining-based flow cytometry. Details: scale not given: the % may be the effect or the level left. The assay is classed as functional, Homo sapiens.

The source made the active and inactive calls. No cut-off for these calls is given here.

As for `COC(=O)[C@H](CSC(=O)CCc1ccc2c(c1)OCO2)NC(=O)OC(C)(C)C`, the result in assay [1] was inactive.
On to `CC(=O)N[C@@H](CS)C(=O)O`, for which the result in assay [2] and in assay [5] was Active. Also, the inhibition entry in assay [3] and in assay [4] was “Active” in each case.
Turning to `COC(=O)[C@H](CSCc1ccccc1)NC(=O)C(Cc1ccc(OC(C)=O)c(OC(C)=O)c1)OC(C)=O` (stereo partly drawn), the result in [6] and in assay [7] was Active. The inhibition result in assay [8] and in assay [1] was “Active” throughout.
On to `COC(=O)[C@@H](N)CSC(=O)CCc1ccc2c(c1)OCO2`, for which the result in [1] was inactive.
In the case of `COC(=O)[C@H](CSC(=O)/C(=C/c1ccc2c(c1)OCO2)OC(C)=O)NC(=O)OC(C)(C)C`, the result in assay [6] and in assay [7] was Active. Further, the inhibition result in assay [8] and in assay [1] was “Active” in each case.
Consider `COC(=O)[C@H](CSC(=O)/C(=C/c1ccc(OC(C)=O)c(OC(C)=O)c1)OC(C)=O)NC(=O)OC(C)(C)C`, for which the outcome in assay [6] and in assay [7] was Active. Moreover, the inhibition result in [8] and in assay [1] was “Active” throughout.
As to `COC(=O)[C@H](CSCc1ccccc1)NC(=O)C(Cc1ccc2c(c1)OCO2)OC(C)=O` (stereo partly drawn), in [1], the inhibition entry is “inactive”.
On to `COC(=O)[C@@H](N)CSC(=O)CCc1ccc(OC(C)=O)c(OC(C)=O)c1`, for which the outcome in assay [1] was inactive.
The same measure, in the same setting: under `COC(=O)[C@H](CSC(=O)CCc1ccc(OC(C)=O)c(OC(C)=O)c1)NC(=O)OC(C)(C)C` stands “inactive”.
Consider `COC(=O)[C@H](CSC(=O)C(Cc1ccc(OC(C)=O)c(OC(C)=O)c1)OC(C)=O)NC(=O)OC(C)(C)C` (stereo partly drawn), for which the inhibition result in [1] is “inactive”.
Still for that read-out and setting: under `COC(=O)[C@H](CSCc1ccccc1)NC(=O)CCc1ccc2c(c1)OCO2` stands “inactive”; under `COC(=O)[C@@H](N)CSC(=O)/C(=C/c1ccc2c(c1)OCO2)OC(C)=O`, “Active”.
Same read-out and setting: under `COC(=O)[C@@H](N)CSC(=O)/C(=C/c1ccc(OC(C)=O)c(OC(C)=O)c1)OC(C)=O` stands “Active”.
Regarding `COC(=O)[C@H](CSCc1ccccc1)NC(=O)/C(=C/c1ccc(OC(C)=O)c(OC(C)=O)c1)OC(C)=O`, the result in [6] and in assay [7] was Active. The Activity result in assay [9], in [10], in assay [11], in assay [12], in assay [13] and in assay [14] was “Dose-dependent effect” in each case. In addition, the Activity entry in assay [15] is “Dose-dependent effect”; in [17], “Dose-dependent effect”; in assay [18] it was “Dose-dependent effect”; in assay [19], “Dose-dependent effect”; in assay [20] it was 5.4%; in [21] it was “Dose-dependent effect”. For the same molecule, the results for the Activity result in assay [22], in [23] and in assay [24] were “Dose-dependent effect”, 20.1% and 9%, respectively. Moreover, the inhibition result in assay [16] is “Dose-dependent effect”. In addition, the inhibition result in assay [8] and in assay [1] was “Active” each time.
With `COC(=O)[C@@H](N)CSC(=O)C(Cc1ccc2c(c1)OCO2)OC(C)=O` (stereo partly drawn), the inhibition result in assay [1] is “Active”.
Same read-out and setting: under `COC(=O)[C@H](CSC(=O)C(Cc1ccc2c(c1)OCO2)OC(C)=O)NC(=O)OC(C)(C)C` (stereo partly drawn) stands “inactive”.
Turning to `COC(=O)[C@H](CSCc1ccccc1)NC(=O)CCc1ccc(OC(C)=O)c(OC(C)=O)c1`, the result in assay [6] and in [7] was Active. Moreover, the inhibition entry in assay [8] and in assay [1] was “Active” in each case.
With `COC(=O)[C@@H](N)CSC(=O)C(Cc1ccc(OC(C)=O)c(OC(C)=O)c1)OC(C)=O` (stereo partly drawn), in [1], the inhibition entry is “inactive”.
Consider `COC(=O)[C@H](CSCc1ccccc1)NC(=O)/C(=C/c1ccc2c(c1)OCO2)OC(C)=O`, for which, in assay [1], the inhibition entry was “inactive”.

Values taken from ChEMBL document CHEMBL2203021, “The synthesis and biological evaluation of novel Danshensu-cysteine analog conjugates as cardiovascular-protective agents” (2012).
